Measurements from ChEMBL document CHEMBL1154064, “Synthesis and DNA cleavage activity of 2-hydrazinyl-1,4,5,6-tetrahydropyrimidine containing hydroxy group” (2009).
Activity calls are given as the source filed them. The rule behind the calls is not given here.

Key:
Nucleic Acid [1] = test: Binding affinity to Escherichia coli pUC19 DNA assessed as form 2 DNA level at 0.698 mM after 23.80 hrs by agarose gel electrophoresis; type: nucleic-acid assay
Nucleic Acid [2] = test: Binding affinity to Escherichia coli pUC19 DNA assessed as form 1 DNA level at 0.175 mM after 23.12 hrs by agarose gel electrophoresis; type: nucleic-acid assay
Nucleic Acid [3] = test: Binding affinity to Escherichia coli pUC19 DNA assessed as form 1 DNA level at 0.175 mM after 13.07 hrs by agarose gel electrophoresis; type: nucleic-acid assay
Nucleic Acid [4] = test: Binding affinity to Escherichia coli pUC19 DNA assessed as form 1 DNA level at 0.349 mM after 26.15 hrs by agarose gel electrophoresis; type: nucleic-acid assay
Nucleic Acid [5] = test: Binding affinity to Escherichia coli pUC19 DNA assessed as form 2 DNA level at 0.698 mM after 12.13 hrs by agarose gel electrophoresis; type: nucleic-acid assay
Nucleic Acid [6] = test: Binding affinity to Escherichia coli pUC19 DNA assessed as form 1 DNA level at 0.463 mM after 13.07 hrs by agarose gel electrophoresis; type: nucleic-acid assay
Nucleic Acid [7] = test: Binding affinity to Escherichia coli pUC19 DNA assessed as form 2 DNA level at 0.262 mM by agarose gel electrophoresis; type: nucleic-acid assay
Nucleic Acid [8] = test: Binding affinity to Escherichia coli pUC19 DNA assessed as form 1 DNA level at 0.262 mM after 25.02 hrs by agarose gel electrophoresis; type: nucleic-acid assay
Nucleic Acid [9] = test: Binding affinity to Escherichia coli pUC19 DNA assessed as form 1 DNA level at 0.175 mM after 9.07 hrs by agarose gel electrophoresis; type: nucleic-acid assay
Nucleic Acid [10] = test: Binding affinity to Escherichia coli pUC19 DNA assessed as form 1 DNA level at 0.463 mM after 25.35 hrs by agarose gel electrophoresis; type: nucleic-acid assay
Nucleic Acid [11] = test: Binding affinity to Escherichia coli pUC19 DNA assessed as form 2 DNA level at 0.463 mM by agarose gel electrophoresis; type: nucleic-acid assay
Nucleic Acid [12] = test: Binding affinity to Escherichia coli pUC19 DNA assessed as form 2 DNA level at 0.463 mM after 25.35 hrs by agarose gel electrophoresis; type: nucleic-acid assay
Nucleic Acid [13] = test: Binding affinity to Escherichia coli pUC19 DNA assessed as form 2 DNA level at 0.320 mM after 27.33 hrs by agarose gel electrophoresis; type: nucleic-acid assay
Nucleic Acid [14] = test: Binding affinity to Escherichia coli pUC19 DNA assessed as form 2 DNA level at 0.698 mM after 14.22 hrs by agarose gel electrophoresis; type: nucleic-acid assay
Nucleic Acid [15] = test: Binding affinity to Escherichia coli pUC19 DNA assessed as form 1 DNA level at 0.320 mM after 29.33 hrs by agarose gel electrophoresis; type: nucleic-acid assay
Nucleic Acid [16] = test: Binding affinity to Escherichia coli pUC19 DNA assessed as form 1 DNA level at 0.130 mM after 8.08 hrs by agarose gel electrophoresis; type: nucleic-acid assay
Nucleic Acid [17] = test: Binding affinity to Escherichia coli pUC19 DNA assessed as form 1 DNA level at 0.262 mM after 23.02 hrs by agarose gel electrophoresis; type: nucleic-acid assay
Nucleic Acid [18] = test: Binding affinity to Escherichia coli pUC19 DNA assessed as form 1 DNA level at 0.349 mM after 11.33 hrs by agarose gel electrophoresis; type: nucleic-acid assay
Nucleic Acid [19] = test: Binding affinity to Escherichia coli pUC19 DNA assessed as form 2 DNA level at 0.463 mM after 31.48 hrs by agarose gel electrophoresis; type: nucleic-acid assay
Nucleic Acid [20] = test: Binding affinity to Escherichia coli pUC19 DNA assessed as form 1 DNA level at 0.175 mM by agarose gel electrophoresis; type: nucleic-acid assay
HL-60 = test: Growth inhibition of human HL60 cells at 100 uM after 72 hrs by MTT assay; type: functional; set-up: scale not given: the % may be the effect or the level left
Nucleic Acid [21] = test: Binding affinity to Escherichia coli pUC19 DNA assessed as form 2 DNA level at 0.463 mM after 9.07 hrs by agarose gel electrophoresis; type: nucleic-acid assay
Nucleic Acid [22] = test: Binding affinity to Escherichia coli pUC19 DNA assessed as form 2 DNA level at 0.320 mM after 9.07 hrs by agarose gel electrophoresis; type: nucleic-acid assay
Nucleic Acid [23] = test: Binding affinity to Escherichia coli pUC19 DNA assessed as form 2 DNA level at 0.698 mM after 8.45 hrs by agarose gel electrophoresis; type: nucleic-acid assay
Nucleic Acid [24] = test: Binding affinity to Escherichia coli pUC19 DNA assessed as form 2 DNA level at 0.320 mM after 13.07 hrs by agarose gel electrophoresis; type: nucleic-acid assay
Nucleic Acid [25] = test: Binding affinity to Escherichia coli pUC19 DNA assessed as form 1 DNA level at 0.175 mM after 25.35 hrs by agarose gel electrophoresis; type: nucleic-acid assay
Nucleic Acid [26] = test: Binding affinity to Escherichia coli pUC19 DNA assessed as form 2 DNA level at 0.262 mM after 24.08 hrs by agarose gel electrophoresis; type: nucleic-acid assay
Nucleic Acid [27] = test: Binding affinity to Escherichia coli pUC19 DNA assessed as form 2 DNA level at 0.698 mM after 3.72 hrs by agarose gel electrophoresis; type: nucleic-acid assay
Nucleic Acid [28] = test: Binding affinity to supercoiled Escherichia coli pUC19 DNA assessed as formation of nicked circular DNA at 1.10 mM at pH 6.0 for 24 hrs in presence of potassium iodide by agarose gel electrophoresis; type: nucleic-acid assay
Nucleic Acid [29] = test: Binding affinity to Escherichia coli pUC19 DNA assessed as form 2 DNA level at 0.262 mM after 28.18 hrs by agarose gel electrophoresis; type: nucleic-acid assay
Nucleic Acid [30] = test: Binding affinity to Escherichia coli pUC19 DNA assessed as form 2 DNA level at 0.130 mM after 5.42 hrs by agarose gel electrophoresis; type: nucleic-acid assay
Nucleic Acid [31] = test: Binding affinity to Escherichia coli pUC19 DNA assessed as form 2 DNA level at 0.130 mM after 23.52 hrs by agarose gel electrophoresis; type: nucleic-acid assay
Nucleic Acid [32] = test: Binding affinity to Escherichia coli pUC19 DNA assessed as form 2 DNA level at 0.175 mM after 27.33 hrs by agarose gel electrophoresis; type: nucleic-acid assay
Nucleic Acid [33] = test: Binding affinity to Escherichia coli pUC19 DNA assessed as form 1 DNA level at 0.349 mM after 23.02 hrs by agarose gel electrophoresis; type: nucleic-acid assay
Nucleic Acid [34] = test: Binding affinity to supercoiled Escherichia coli pUC19 DNA assessed as formation of nicked circular DNA at 1.10 mM at pH 6.0 for 24 hrs in presence of tertiary butyl hydroxide by agarose gel electrophoresis; type: nucleic-acid assay
Nucleic Acid [35] = test: Binding affinity to Escherichia coli pUC19 DNA assessed as form 2 DNA level at 0.349 mM by agarose gel electrophoresis; type: nucleic-acid assay
Nucleic Acid [36] = test: Binding affinity to Escherichia coli pUC19 DNA assessed as form 2 DNA level at 0.463 mM after 29.33 hrs by agarose gel electrophoresis; type: nucleic-acid assay
Nucleic Acid [37] = test: Binding affinity to Escherichia coli pUC19 DNA assessed as form 1 DNA level at 0.320 mM by agarose gel electrophoresis; type: nucleic-acid assay
Nucleic Acid [38] = test: Binding affinity to Escherichia coli pUC19 DNA assessed as form 1 DNA level at 0.130 mM after 14 hrs by agarose gel electrophoresis; type: nucleic-acid assay
Nucleic Acid [39] = test: Binding affinity to Escherichia coli pUC19 DNA assessed as form 2 DNA level at 0.262 mM after 25.02 hrs by agarose gel electrophoresis; type: nucleic-acid assay

In the case of `Cl.Cl.NNC1=NCC(O)CN1` (stereo not given), the Activity (Nucleic Acid [1]) is reported as 45%, the Activity (Nucleic Acid [2]) is reported as 80.8% and the Activity (Nucleic Acid [3]) is reported as 90.8%. For the same compound, the Activity (Nucleic Acid [4]) was 68.5%, the Activity (Nucleic Acid [5]) was 23% and the Activity (Nucleic Acid [6]) was 77.5%. It also gave an Activity (Nucleic Acid [7]) of 2.81%, an Activity (Nucleic Acid [8]) of 88.1% and an Activity (Nucleic Acid [9]) of 93.9%. For the same compound, the Activity (Nucleic Acid [10]) was 60.2%, the Activity (Nucleic Acid [11]) was 3.75% and the Activity (Nucleic Acid [12]) was 39.8%. It also gave an Activity (Nucleic Acid [13]) of 67.8%, an Activity (Nucleic Acid [14]) of 28.4% and an Activity (Nucleic Acid [15]) of 59%. It also gave an Activity (Nucleic Acid [16]) of 83.8%, an Activity (Nucleic Acid [17]) of 90.1% and an Activity (Nucleic Acid [18]) of 90.9%. For the same compound, the Activity (Nucleic Acid [19]) was 48.9%, the Activity (Nucleic Acid [20]) was 97.1% and the Activity (HL-60) was 70%. For the same compound, the Activity (Nucleic Acid [21]) was 16.6%, the Activity (Nucleic Acid [22]) was 91.7% and the Activity (Nucleic Acid [23]) was 15.2%. The Activity (Nucleic Acid [24]) was 87.8%, the Activity (Nucleic Acid [25]) was 78.9% and the Activity (Nucleic Acid [26]) was 10.5%. The Activity (Nucleic Acid [27]) was 5.08%, the Activity (Nucleic Acid [28]) was “inactive” and the Activity (Nucleic Acid [29]) was 15.9%. For the same compound, the Activity (Nucleic Acid [30]) was 14.9%, the Activity (Nucleic Acid [31]) was 26% and the Activity (Nucleic Acid [32]) was 24%. The Activity (Nucleic Acid [33]) was 72.3%, the Activity (Nucleic Acid [34]) was “inactive” and the Activity (Nucleic Acid [35]) was 2.46%. The Activity (Nucleic Acid [36]) was 42.2%, the Activity (Nucleic Acid [37]) was 98.2% and the Activity (Nucleic Acid [38]) was 75.5%. The Activity (Nucleic Acid [39]) was 11.9%.
